Legend:
Type in all cases: cell-based, human
PU-1 = experiment: Western blot of PU-1 in THP-1 nuclear extracts (Ets-2 DNA element beads)
Excerpt: (§1) Of the transcription factors that have been analyzed, two factors, ICSBP and c-Rel, seem to be affected by Compound 1/Compound 2 treatment. ICSBP binds indirectly to the Ets-2 site. The primary NFκB trans-activator for IL-12 is the c-Rel/p50 heterodimer. Other dimers (p65/p50 and p50/p50) either lack activity or have inhibitory functions. Thus, c-Rel plays a role in IL-12 transcription as a result of both activation through NFκB and its interaction with ICSBP. […] The membranes were blocked with 5% milk in TBST buffer and then incubated with anti-c-Rel, anti-p65, anti-p50, anti-ICSBP or anti-PU-1 antibody (all the antibodies were purchased from Santa Cruz) at a dilution of 1:500 for 1 h at room temperature or overnight at 4° C. The membranes were washed and incubated with Horseradish Peroxidase-conjugated anti-rabbit IgG or anti-mouse IgG (Amersham, England) at a dilution of 1:2000 at room temperature for 1 h.
The transcription factor ICSBP binds to the Ets-2 element indirectly through binding to PU-1. Nuclear extracts were bound to Ets-2 DNA element beads, the beads isolated to separate bound from free protein, and the proteins analyzed on Western blots using antibodies to either ICSBP or PU-1. […] Eluted materials were separated by 10% SDS-PAGE and detected by immunoblot analysis using anti-ICSBP or anti-PU-1 antibody.

IκBβ = experiment: Inducible degradation of IκBβ, Western blot and FACS analysis; conditions: THP-1 and RAW267.4 cells, IFN-γ/LPS or IFN-γ/SAC, 500 nM, 30 min and 2 hrs
Description: IκB degradation is one of the steps in the signaling pathway of NFκB dependent genes. The activity of Compound 2 in inducible degradation of IκBα □ and IκBβ was investigated in THP-1 cells using Western blot and FACS analysis. […] Similar results were observed from the Compound 2 pre-treatment samples in which Compound 2 was added […] before stimulation.

p50 = experiment: Western blot of nuclear p50 in THP-1 cells
Excerpt: In order to understand this changes, the subcellular localization of NF-κB proteins was investigated using western blot analysis.
as §1
Compound 2 impairs nuclear translocation of c-Rel and p50. We examined the nuclear translocation kinetics of NF-kB family members in LPS stimulated cells treated with Compound 2. THP1 cells were stimulated with LPS in either the presence or absence of 100 nM Compound 2, and the distribution of the NF-κB Rel family members are determined by immunoblotting nuclear (n.p.) extracts collected at 5 min, 15 min, 30 min, 1 h, 3 h and 6 h post-treatment. In response to LPS stimulation, p50 translocated into the nucleus as early as 5 minutes post-stimulation and accumulates as time goes on (FIG. 7, immunoblots and FIG. 8 densitometry). […] The experiment examining p65 nuclear translocation is shown in FIG. 9 (immunoblots) and FIG. 10 (densitometry). In LPS stimulated cells, p65 translocated into the nucleus as early as 5 minutes post-stimulation and accumulated to maximum levels at 15-30 minutes post-stimulation. Treatment of LPS-stimulated cells with Compound 2 had no effect on the kinetics of p65 nuclear entry.
THP-1 cells were suspended in 20 volumes of buffer A containing 10 mM KCl, 10 mM HEPES (pH 7.9), 1 mM MgCl2, 1 mM dithiothreitol (DTT), 0.1% Nonidet p40 (NP-40), and 0.5 mM phenylmethylsulfonyl fluoride (PMSF) and homogenized and centrifuged at 10,000 rpm at 4 C for 5 min. Nuclear pellets were then suspended in buffer C containing 400 mM NaCl, 20 mM HEPES 9 pH 7.9), 15 mM MgCl2, 0.2 mM EDTA, 1 mM DTT, 25% glycerol, 1 mM PMSF, and 10 ug of leupeptin, 20 ug of pepstatin, and 10 ug/ml antipain, incubated for 30 min at 4 C, and centrifuged at 14,000 rpm for 20 min. The supernatants were dialyzed against buffer D containing 100 mM NaCl, 20 mM HEPES (pH 7.9), 20% glycerol, 1 mM PMSF, and 1 mM DTT. […]

| Compound | levels of PU-1 (FIG. 6) (PU-1) | amount of IκBβ in the cytoplasm, treated vs untreated (IκBβ) | amount of p50 protein in nuclear (p50; 500 nM, 3 hr, relative to untreated cells) | nuclear p50 levels (FIG. 4) (p50; THP1, IFN-γ plus LPS or IFN-γ plus SAC) | kinetics of p50 nuclear entry (p50; THP1, LPS, 100 nM, 5 minutes to 1 hr post-stimulation) | nuclear p50 protein levels (p50; THP1, LPS, 100 nM, 3 hours) |
| --- | --- | --- | --- | --- | --- | --- |
| C(=NNc1nc(OCCc2ccccn2)nc(N2CCOCC2)n1)c1c[nH]c2ccccc12 [Compound 1, N-(1H-indol-3-ylmethylene)-N′-[4-morpholin-4-yl-6-(2-pyridin-2-yl-ethoxy)-[1,3,5]triazin-2-yl]-hydrazine] | unaffected |  |  |  |  |  |
| Cc1cccc(C=NNc2cc(N3CCOCC3)nc(OCCc3ccccn3)n2)c1 [Compound 2, N-(3-methyl-benzylidene)-N′-[6-morpholin-4-yl-2-(2-pyridin-2-yl-ethoxy)-pyrimidin-4-yl]-hydrazine] |  | no significant difference | decreased | decreased slightly | no effect | small decrease |

From patent publication US9910031B2, “Compositions and methods for modulating c-Rel-dependent cytokine production” (Synta Pharmaceuticals Corporation, priority 2003, dated 2018)
